{
  "source": "the kinase profiling compilation of Christmann-Franck et al. (2016)",
  "assay_in_all_cases": "Caliper, Mobility shift assay off-chip",
  "key": {"[1]": {"target": "DYRK2 (human) (UniProt Q92630)"}, "[2]": {"target": "EPHA7 (human) (UniProt Q15375)"}, "[3]": {"target": "PRKCD (human) (UniProt Q05655)", "sequence (Q05655 whole entry, looked up)": "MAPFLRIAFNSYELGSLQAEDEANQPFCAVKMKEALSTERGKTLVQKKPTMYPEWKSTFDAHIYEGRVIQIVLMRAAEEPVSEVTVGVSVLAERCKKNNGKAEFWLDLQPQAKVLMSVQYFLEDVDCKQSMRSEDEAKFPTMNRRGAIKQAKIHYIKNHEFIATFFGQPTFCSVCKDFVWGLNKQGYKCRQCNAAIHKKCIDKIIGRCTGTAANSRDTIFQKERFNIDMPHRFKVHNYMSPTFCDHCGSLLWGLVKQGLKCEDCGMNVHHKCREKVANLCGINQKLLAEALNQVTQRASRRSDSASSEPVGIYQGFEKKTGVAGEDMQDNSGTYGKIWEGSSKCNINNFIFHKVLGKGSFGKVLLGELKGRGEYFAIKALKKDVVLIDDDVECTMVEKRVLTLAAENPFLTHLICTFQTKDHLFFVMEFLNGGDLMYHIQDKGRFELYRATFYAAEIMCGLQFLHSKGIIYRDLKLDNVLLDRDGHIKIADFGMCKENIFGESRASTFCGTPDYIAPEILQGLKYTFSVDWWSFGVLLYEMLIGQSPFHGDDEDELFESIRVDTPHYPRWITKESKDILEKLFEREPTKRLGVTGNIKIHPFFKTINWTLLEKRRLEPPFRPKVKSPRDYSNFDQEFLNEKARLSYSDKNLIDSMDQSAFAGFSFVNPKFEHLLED"}, "[4]": {"target": "MAPK1 (human) (UniProt P28482)"}, "[5]": {"target": "NTRK1 (human) (UniProt P04629)"}, "[6]": {"target": "PRKG2 (human) (UniProt Q13237)"}, "[7]": {"target": "FGFR4 (human) (UniProt P22455)"}, "[8]": {"target": "AURKC (human) (UniProt Q9UQB9)"}, "[9]": {"target": "PTK2 (human) (UniProt Q05397)", "sequence (Q05397 whole entry, looked up)": "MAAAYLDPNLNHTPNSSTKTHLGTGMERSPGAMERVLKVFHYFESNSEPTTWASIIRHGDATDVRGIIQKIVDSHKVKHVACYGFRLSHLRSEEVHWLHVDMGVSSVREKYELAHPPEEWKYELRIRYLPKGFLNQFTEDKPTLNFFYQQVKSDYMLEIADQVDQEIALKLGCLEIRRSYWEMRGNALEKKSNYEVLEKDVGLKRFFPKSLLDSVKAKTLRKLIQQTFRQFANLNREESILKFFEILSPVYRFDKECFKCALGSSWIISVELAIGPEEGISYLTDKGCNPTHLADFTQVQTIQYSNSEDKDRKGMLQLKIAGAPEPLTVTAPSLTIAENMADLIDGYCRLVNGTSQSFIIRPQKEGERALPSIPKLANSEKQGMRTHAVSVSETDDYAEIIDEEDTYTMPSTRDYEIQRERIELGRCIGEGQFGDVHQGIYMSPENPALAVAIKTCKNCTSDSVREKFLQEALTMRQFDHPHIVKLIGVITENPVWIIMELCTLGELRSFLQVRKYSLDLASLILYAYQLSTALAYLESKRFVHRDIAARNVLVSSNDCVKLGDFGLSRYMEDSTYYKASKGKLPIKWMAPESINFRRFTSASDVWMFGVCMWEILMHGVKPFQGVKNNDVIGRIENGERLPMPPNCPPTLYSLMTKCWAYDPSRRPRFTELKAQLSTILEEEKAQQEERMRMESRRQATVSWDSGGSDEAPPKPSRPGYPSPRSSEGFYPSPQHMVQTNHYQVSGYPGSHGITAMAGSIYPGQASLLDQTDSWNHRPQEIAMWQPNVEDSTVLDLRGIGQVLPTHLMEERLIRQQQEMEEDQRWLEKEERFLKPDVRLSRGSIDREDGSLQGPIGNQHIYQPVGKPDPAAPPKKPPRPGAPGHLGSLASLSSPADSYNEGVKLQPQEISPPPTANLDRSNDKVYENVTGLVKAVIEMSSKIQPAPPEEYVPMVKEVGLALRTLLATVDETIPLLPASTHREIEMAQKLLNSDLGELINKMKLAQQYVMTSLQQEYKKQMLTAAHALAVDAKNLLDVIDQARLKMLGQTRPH"}, "[10]": {"target": "FES (human) (UniProt P07332)"}, "[11]": {"target": "PAK1 (human) (UniProt Q13153)"}, "[12]": {"target": "WNK3 (human) (UniProt Q9BYP7)"}, "[13]": {"target": "CDK5 (human) (UniProt Q00535)"}, "[14]": {"target": "PDK4 (human) (UniProt Q16654)"}, "[15]": {"target": "NEK9 (human) (UniProt Q8TD19)"}, "[16]": {"target": "SIK1 (human) (UniProt P57059)"}, "[17]": {"target": "STK10 (human) (UniProt O94804)", "sequence (O94804 whole entry, looked up)": "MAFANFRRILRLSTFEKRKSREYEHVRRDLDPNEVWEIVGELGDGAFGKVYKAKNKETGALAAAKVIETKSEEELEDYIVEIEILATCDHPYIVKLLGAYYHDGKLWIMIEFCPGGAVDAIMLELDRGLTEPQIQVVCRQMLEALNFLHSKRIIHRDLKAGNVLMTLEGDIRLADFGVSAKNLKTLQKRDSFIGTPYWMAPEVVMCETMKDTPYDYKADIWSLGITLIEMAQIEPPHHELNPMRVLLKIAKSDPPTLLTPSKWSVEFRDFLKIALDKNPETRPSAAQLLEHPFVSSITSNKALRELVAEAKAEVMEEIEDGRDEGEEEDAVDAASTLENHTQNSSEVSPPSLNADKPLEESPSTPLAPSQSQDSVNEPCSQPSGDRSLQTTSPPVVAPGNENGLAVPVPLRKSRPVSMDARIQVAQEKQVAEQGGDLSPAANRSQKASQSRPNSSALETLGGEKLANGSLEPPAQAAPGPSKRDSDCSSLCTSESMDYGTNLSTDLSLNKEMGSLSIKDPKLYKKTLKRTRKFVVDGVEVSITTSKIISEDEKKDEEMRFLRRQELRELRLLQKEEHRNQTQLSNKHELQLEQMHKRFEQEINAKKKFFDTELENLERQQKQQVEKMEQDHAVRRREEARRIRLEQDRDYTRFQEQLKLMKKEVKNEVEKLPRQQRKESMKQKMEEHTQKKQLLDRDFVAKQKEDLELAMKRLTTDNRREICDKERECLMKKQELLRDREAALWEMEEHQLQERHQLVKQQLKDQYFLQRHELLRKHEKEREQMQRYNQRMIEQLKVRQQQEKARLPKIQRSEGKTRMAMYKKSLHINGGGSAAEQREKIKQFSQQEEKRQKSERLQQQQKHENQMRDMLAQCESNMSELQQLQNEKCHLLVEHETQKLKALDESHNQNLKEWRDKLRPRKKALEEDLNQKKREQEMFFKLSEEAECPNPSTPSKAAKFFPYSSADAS"}, "[18]": {"target": "PIK3CA PIK3R1 (human) (UniProt P27986+P42336)"}, "[19]": {"target": "PAK6 (human) (UniProt Q9NQU5)"}, "[20]": {"target": "PRKCA (human) (UniProt P17252)"}, "[21]": {"target": "MAP4K2 (human) (UniProt Q12851)"}, "[22]": {"target": "GSK3B (human) (UniProt P49841)"}, "[23]": {"target": "DAPK1 (human) (UniProt P53355)"}, "[24]": {"target": "GSK3A (human) (UniProt P49840)", "sequence (P49840 whole entry, looked up)": "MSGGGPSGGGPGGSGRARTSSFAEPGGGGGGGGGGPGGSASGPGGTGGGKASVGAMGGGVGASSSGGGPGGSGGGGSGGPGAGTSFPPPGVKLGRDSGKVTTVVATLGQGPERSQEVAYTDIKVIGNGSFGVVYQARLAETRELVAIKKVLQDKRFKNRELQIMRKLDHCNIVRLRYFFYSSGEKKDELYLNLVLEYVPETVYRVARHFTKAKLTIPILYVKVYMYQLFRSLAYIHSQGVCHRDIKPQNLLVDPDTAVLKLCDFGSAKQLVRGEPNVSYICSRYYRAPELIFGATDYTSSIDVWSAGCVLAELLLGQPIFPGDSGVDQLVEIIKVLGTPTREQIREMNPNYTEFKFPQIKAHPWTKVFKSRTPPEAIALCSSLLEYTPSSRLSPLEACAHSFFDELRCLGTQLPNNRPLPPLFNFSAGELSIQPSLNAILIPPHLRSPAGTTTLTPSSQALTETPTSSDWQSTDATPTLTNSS"}, "[25]": {"target": "CDC42BPB (human) (UniProt Q9Y5S2)"}, "[26]": {"target": "MAPK13 (human) (UniProt O15264)", "sequence (O15264 whole entry, looked up)": "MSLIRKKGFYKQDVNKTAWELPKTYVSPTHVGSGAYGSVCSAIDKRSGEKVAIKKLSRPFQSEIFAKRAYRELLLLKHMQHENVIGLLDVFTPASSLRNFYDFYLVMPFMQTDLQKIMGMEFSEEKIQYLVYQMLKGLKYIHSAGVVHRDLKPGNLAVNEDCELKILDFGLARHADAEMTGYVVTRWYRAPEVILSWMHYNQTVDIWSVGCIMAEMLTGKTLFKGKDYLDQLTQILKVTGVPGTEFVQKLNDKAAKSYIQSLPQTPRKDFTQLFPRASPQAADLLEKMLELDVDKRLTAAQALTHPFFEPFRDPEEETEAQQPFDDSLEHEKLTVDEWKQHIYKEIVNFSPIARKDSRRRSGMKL"}, "[27]": {"target": "PDGFRB (human) (UniProt P09619)"}, "[28]": {"target": "EPHA3 (human) (UniProt P29320)"}, "[29]": {"target": "EPHA5 (human) (UniProt P54756)"}, "[30]": {"target": "SRPK2 (human) (UniProt P78362)"}, "[31]": {"target": "IGF1R (human) (UniProt P08069)", "sequence (P08069 whole entry, looked up)": "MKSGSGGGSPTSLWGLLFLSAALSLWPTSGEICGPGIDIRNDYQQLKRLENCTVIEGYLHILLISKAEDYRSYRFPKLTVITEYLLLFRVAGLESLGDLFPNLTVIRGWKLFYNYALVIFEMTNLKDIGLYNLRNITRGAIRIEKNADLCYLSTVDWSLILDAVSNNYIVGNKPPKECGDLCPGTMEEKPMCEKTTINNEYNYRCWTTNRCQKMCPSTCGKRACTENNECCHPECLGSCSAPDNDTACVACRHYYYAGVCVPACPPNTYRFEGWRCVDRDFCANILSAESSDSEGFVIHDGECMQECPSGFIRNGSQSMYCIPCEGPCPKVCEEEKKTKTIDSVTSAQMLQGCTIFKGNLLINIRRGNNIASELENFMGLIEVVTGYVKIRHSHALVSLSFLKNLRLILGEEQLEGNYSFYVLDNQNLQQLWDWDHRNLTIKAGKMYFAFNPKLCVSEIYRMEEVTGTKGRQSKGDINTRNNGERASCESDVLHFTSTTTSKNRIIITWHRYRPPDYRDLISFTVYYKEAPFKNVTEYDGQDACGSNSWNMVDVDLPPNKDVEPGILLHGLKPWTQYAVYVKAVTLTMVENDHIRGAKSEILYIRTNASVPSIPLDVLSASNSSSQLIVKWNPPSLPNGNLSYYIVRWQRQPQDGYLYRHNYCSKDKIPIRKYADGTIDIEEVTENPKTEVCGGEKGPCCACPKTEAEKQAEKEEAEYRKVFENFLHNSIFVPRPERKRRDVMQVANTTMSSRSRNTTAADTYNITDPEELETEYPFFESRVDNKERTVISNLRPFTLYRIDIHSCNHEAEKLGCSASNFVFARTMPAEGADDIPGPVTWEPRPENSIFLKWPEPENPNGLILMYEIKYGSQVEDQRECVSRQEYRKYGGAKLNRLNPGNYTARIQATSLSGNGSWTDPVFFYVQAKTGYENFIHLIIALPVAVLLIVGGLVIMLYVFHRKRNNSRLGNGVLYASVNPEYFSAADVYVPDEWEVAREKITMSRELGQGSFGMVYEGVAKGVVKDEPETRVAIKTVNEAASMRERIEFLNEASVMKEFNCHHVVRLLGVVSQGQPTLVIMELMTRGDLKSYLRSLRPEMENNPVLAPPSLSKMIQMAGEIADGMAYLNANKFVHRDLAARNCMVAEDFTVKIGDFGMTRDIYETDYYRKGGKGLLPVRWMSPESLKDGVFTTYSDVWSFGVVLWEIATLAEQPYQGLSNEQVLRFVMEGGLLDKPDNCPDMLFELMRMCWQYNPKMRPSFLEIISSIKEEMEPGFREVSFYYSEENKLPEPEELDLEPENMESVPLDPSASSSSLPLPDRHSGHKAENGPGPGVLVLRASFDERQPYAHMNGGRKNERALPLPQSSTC"}, "[32]": {"target": "STK38L (human) (UniProt Q9Y2H1)"}, "[33]": {"target": "ZAP70 (human) (UniProt P43403)"}, "[34]": {"target": "MST4 (human) (UniProt Q9P289)"}},
  "data": [
    {"compound": "COc1cc2c(Oc3ccc4[nH]c(C)cc4c3F)ncnc2cc1OCCCN1CCCC1", "values": [
      {"measurement": "inhibition", "setting": "[1]; compound 0.02 µM", "value": 13.4, "unit": "%"},
      {"measurement": "inhibition", "setting": "[1]; compound 0.2 µM", "value": -5.6, "unit": "%"},
      {"measurement": "inhibition", "setting": "[2]; compound 0.02 µM", "value": -2.4, "unit": "%"},
      {"measurement": "inhibition", "setting": "[2]; compound 0.2 µM", "value": 23.5, "unit": "%"},
      {"measurement": "inhibition", "setting": "[3]; compound 0.02 µM", "value": 11.1, "unit": "%"},
      {"measurement": "inhibition", "setting": "[3]; compound 0.2 µM", "value": -2.2, "unit": "%"},
      {"measurement": "inhibition", "setting": "[4]; compound 0.02 µM", "value": -6.5, "unit": "%"},
      {"measurement": "inhibition", "setting": "[4]; compound 0.2 µM", "value": -9, "unit": "%"},
      {"measurement": "inhibition", "setting": "[5]; compound 0.02 µM", "value": 3.4, "unit": "%"},
      {"measurement": "inhibition", "setting": "[5]; compound 0.2 µM", "value": 3.9, "unit": "%"},
      {"measurement": "inhibition", "setting": "[6]; compound 0.02 µM", "value": -2.4, "unit": "%"},
      {"measurement": "inhibition", "setting": "[6]; compound 0.2 µM", "value": -3.4, "unit": "%"},
      {"measurement": "inhibition", "setting": "[7]; compound 0.02 µM", "value": 3.2, "unit": "%"},
      {"measurement": "inhibition", "setting": "[7]; compound 0.2 µM", "value": 22.3, "unit": "%"},
      {"measurement": "inhibition", "setting": "[8]; compound 0.02 µM", "value": -4.3, "unit": "%"},
      {"measurement": "inhibition", "setting": "[8]; compound 0.2 µM", "value": -4, "unit": "%"},
      {"measurement": "inhibition", "setting": "[9]; compound 0.02 µM", "value": -5.3, "unit": "%"},
      {"measurement": "inhibition", "setting": "[9]; compound 0.2 µM", "value": -4.2, "unit": "%"},
      {"measurement": "inhibition", "setting": "[10]; compound 0.02 µM", "value": 6.9, "unit": "%"},
      {"measurement": "inhibition", "setting": "[10]; compound 0.2 µM", "value": 7.8, "unit": "%"},
      {"measurement": "inhibition", "setting": "[11]; compound 0.02 µM", "value": -2.7, "unit": "%"},
      {"measurement": "inhibition", "setting": "[11]; compound 0.2 µM", "value": -3, "unit": "%"},
      {"measurement": "inhibition", "setting": "[12]; compound 0.02 µM", "value": 0.8, "unit": "%"},
      {"measurement": "inhibition", "setting": "[12]; compound 0.2 µM", "value": -1.1, "unit": "%"},
      {"measurement": "inhibition", "setting": "[13]; compound 0.02 µM", "value": 0.8, "unit": "%"},
      {"measurement": "inhibition", "setting": "[13]; compound 0.2 µM", "value": -4.2, "unit": "%"},
      {"measurement": "inhibition", "setting": "[14]; compound 0.02 µM", "value": 2.7, "unit": "%"},
      {"measurement": "inhibition", "setting": "[14]; compound 0.2 µM", "value": 1.6, "unit": "%"},
      {"measurement": "inhibition", "setting": "[15]; compound 0.02 µM", "value": -3.3, "unit": "%"},
      {"measurement": "inhibition", "setting": "[15]; compound 0.2 µM", "value": -2.9, "unit": "%"},
      {"measurement": "inhibition", "setting": "[16]; compound 0.02 µM", "value": -3.3, "unit": "%"},
      {"measurement": "inhibition", "setting": "[16]; compound 0.2 µM", "value": -0.4, "unit": "%"},
      {"measurement": "inhibition", "setting": "[17]; compound 0.02 µM", "value": 45.1, "unit": "%"},
      {"measurement": "inhibition", "setting": "[17]; compound 0.2 µM", "value": 91.7, "unit": "%"},
      {"measurement": "inhibition", "setting": "[18]; compound 0.02 µM", "value": 26.6, "unit": "%"},
      {"measurement": "inhibition", "setting": "[18]; compound 0.2 µM", "value": 34.9, "unit": "%"},
      {"measurement": "inhibition", "setting": "[19]; compound 0.02 µM", "value": -2.2, "unit": "%"},
      {"measurement": "inhibition", "setting": "[19]; compound 0.2 µM", "value": -4.9, "unit": "%"},
      {"measurement": "inhibition", "setting": "[20]; compound 0.02 µM", "value": 10.1, "unit": "%"},
      {"measurement": "inhibition", "setting": "[20]; compound 0.2 µM", "value": 0.3, "unit": "%"},
      {"measurement": "inhibition", "setting": "[21]; compound 0.02 µM", "value": 2.6, "unit": "%"},
      {"measurement": "inhibition", "setting": "[21]; compound 0.2 µM", "value": 18.4, "unit": "%"},
      {"measurement": "inhibition", "setting": "[22]; compound 0.02 µM", "value": 0.7, "unit": "%"},
      {"measurement": "inhibition", "setting": "[22]; compound 0.2 µM", "value": 0.8, "unit": "%"},
      {"measurement": "inhibition", "setting": "[23]; compound 0.02 µM", "value": -5.9, "unit": "%"},
      {"measurement": "inhibition", "setting": "[23]; compound 0.2 µM", "value": 7.4, "unit": "%"},
      {"measurement": "inhibition", "setting": "[24]; compound 0.02 µM", "value": 3.5, "unit": "%"},
      {"measurement": "inhibition", "setting": "[24]; compound 0.2 µM", "value": 2.1, "unit": "%"},
      {"measurement": "inhibition", "setting": "[25]; compound 0.02 µM", "value": -8.9, "unit": "%"},
      {"measurement": "inhibition", "setting": "[25]; compound 0.2 µM", "value": 4.2, "unit": "%"},
      {"measurement": "inhibition", "setting": "[26]; compound 0.02 µM", "value": -2.9, "unit": "%"},
      {"measurement": "inhibition", "setting": "[26]; compound 0.2 µM", "value": -3.4, "unit": "%"},
      {"measurement": "inhibition", "setting": "[27]; compound 0.02 µM", "value": 17.9, "unit": "%"},
      {"measurement": "inhibition", "setting": "[27]; compound 0.2 µM", "value": 61.8, "unit": "%"},
      {"measurement": "inhibition", "setting": "[28]; compound 0.02 µM", "value": -6.9, "unit": "%"},
      {"measurement": "inhibition", "setting": "[28]; compound 0.2 µM", "value": -1.2, "unit": "%"},
      {"measurement": "inhibition", "setting": "[29]; compound 0.02 µM", "value": -0.9, "unit": "%"},
      {"measurement": "inhibition", "setting": "[29]; compound 0.2 µM", "value": 7.6, "unit": "%"},
      {"measurement": "inhibition", "setting": "[30]; compound 0.02 µM", "value": -7.9, "unit": "%"},
      {"measurement": "inhibition", "setting": "[30]; compound 0.2 µM", "value": -5.3, "unit": "%"},
      {"measurement": "inhibition", "setting": "[31]; compound 0.02 µM", "value": 1.4, "unit": "%"},
      {"measurement": "inhibition", "setting": "[31]; compound 0.2 µM", "value": -1.5, "unit": "%"},
      {"measurement": "inhibition", "setting": "[32]; compound 0.02 µM", "value": 8.9, "unit": "%"},
      {"measurement": "inhibition", "setting": "[32]; compound 0.2 µM", "value": -0.2, "unit": "%"},
      {"measurement": "inhibition", "setting": "[33]; compound 0.02 µM", "value": 3.1, "unit": "%"},
      {"measurement": "inhibition", "setting": "[33]; compound 0.2 µM", "value": 3.4, "unit": "%"},
      {"measurement": "inhibition", "setting": "[34]; compound 0.02 µM", "value": -7.3, "unit": "%"},
      {"measurement": "inhibition", "setting": "[34]; compound 0.2 µM", "value": -3, "unit": "%"}
    ]}
  ]
}
